In PMC10973839, “CHF6297: a novel potent and selective p38 MAPK inhibitor with robust anti-inflammatory activity and suitable for inhaled pulmonary administration as dry powder” (Frontiers in Pharmacology, 2024):

Legend:
[1] = tested on: IAV-induced airway neutrophilia in HDM-challenged mice; assay: Influenza virus A (H3N2)-induced exacerbation in HDM-sensitized mice; type: in vivo, Balb/c mice; details: 100 μg/kg twice daily for 3 days
[2] = tested on: TS-induced neutrophil influx in BALF; assay: BALF neutrophilia induced by tobacco smoke exposure in mice; type: in vivo, C57BL6J female mice; details: 0.3 mg/kg i.n., 4 days TS exposure
Protocol: C57BL6J female mice aged 9–10 weeks (Harlan Laboratories S.r.l) in groups of 8 were exposed, via whole-body inhalation, twice daily 1 h apart, for 4 consecutive days, to the tobacco smoke (TS) (generated using “Marlboro Gold: 9 mg of tar and 0.7 mg nicotine”) of two cigarettes/exposure on days 1 and 2, three cigarettes/exposure on day 3, and four cigarettes/exposure on the last exposure day in clear polycarbonate chambers (27 cm × 16 cm × 12 cm). The smoke was introduced into the exposure chambers (21100-790 Ugo Basile, Biological Research Instruments, Comerio, Varese, Italy), with the airflow generated by using a mechanical ventilator (7025 Rodent Ventilator, Ugo Basile). Each exposure chamber was connected to a different ventilator set at a rate of 100 mL/min (frequency: 50 strokes/min; volume: 2 mL/stroke). At regular intervals (after burning two cigarettes), the exposure chambers were opened and aired. Sham and control mice were exposed to air only in the same manner for the same duration of time.
CHF6297 (0.03 and 0.3 mg/kg) and budesonide (0.3 mg/kg), our reference compound and vehicle (0.2% Tween 80 in saline), respectively, were administered intranasally in a volume of 30 µL, 1 h before and 5 h after TS exposure under light isoflurane anesthesia.
A BAL was performed using a volume of 0.6 mL of phosphate-buffered saline that was gently instilled and withdrawn three times using a 12-mL syringe. BALF cells were separated by centrifugation (10 min at 3,070 g), and the supernatant was removed. The resulting cell pellet was resuspended in a known volume of PBS, and the total cell numbers were calculated by counting a stained (Turk’s stain) aliquot under a microscope using a hemacytometer. The cell pellet was resuspended to approximately 10^5 cells per ml, and cytospin slides were prepared by centrifugation (8 min at 72.26 g; Shandon Cytospin; Thermo Shandon Ltd., Runcorn, Cheshire, United Kingdom). The slides were air-dried and stained using Wright–Giemsa stain, following the manufacturer’s instructions. A differential cell count was performed using light microscopy. Approximately 400 cells were counted from each slide. The cells were identified using standard morphometric techniques.

[3] = tested on: rat PBMCs; assay: TNF-α release in LPS-stimulated PBMCs; type: cell-based; details: PBMC, LPS 10 ng/mL, 18 h
Protocol: Peripheral blood mononuclear cells (PBMCs) were isolated from the blood of healthy human volunteers and Wistar rats (250–350 gr; Charles River, Calco, Italy) using a standard density gradient centrifugation technique. The citrated blood was placed onto Histopaque^TM and centrifuged. The PBMCs were then removed from the density gradient interface and washed in phosphate-buffered saline (PBS). The PBMCs were suspended in RPMI 1640 medium (without serum), aliquoted into a 96-well plate, and incubated at 37°C for 3 h in a humidified incubator. After incubation, the medium was replaced (with a medium containing 1% fetal bovine serum), and the plate was incubated at 37°C, for 1 h, in the presence of a test compound or the appropriate vehicle. LPS (10 ng/mL), or an appropriate vehicle control, was then added to the cells, and the plate was returned to the incubator for 18 h. Cell-free supernatants were removed and assayed for TNF-α levels using MSD plates on the SECTOR Imager 6000 (Meso Scale).

[4] = tested on: HBSMCs; assay: CSE-evoked IL-8 release in human bronchial smooth muscle cells; type: cell-based
Protocol: Cigarette smoke extract (CSE) was generated as reported previously ([Moretto et al., 2012]). Briefly, aqueous CSE was obtained from the combustion of four cigarettes (Marlboro Red, 12 mg tar, 0.9 mg nicotine each) bubbled through 50 mL of the culture medium and subsequently filtered through a 0.2-μm-pore filter (Millipore, Billerica, MA). To ensure reproducibility among different CSE batches, the absorbance [optical density (OD)] measured at 320 nm was used as a measure of the “strength” of the extract. Dilutions were made with culture media to obtain the desired absorbance. The CSE was freshly prepared on the day of the experiment and immediately used after preparation. Human bronchial smooth muscle cells (HBSMCs) were seeded in DMEM with 10% FBS (50 U/mL penicillin, 0.05 mg/mL streptomycin, and 2 mM L-glutamine) in 48-well plates at a density of 10,000 cells/well, grown to ∼80%–90% confluence and incubated overnight in serum-free DMEM before treatments. All the treatments were performed in serum-free DMEM. The cells were pretreated for 30 min with either the vehicle or CHF6297 or losmapimod before stimulation with freshly prepared CSE, TNF-α, (1 ng/mL), or the vehicle for 18 h at 37°C. Human IL-8 was measured in the collected supernatants by use of a paired-antibody quantitative ELISA kit (BioSource International, Camarillo, CA).

[5] = tested on: i.v. LPS-induced TNF-α in blood; assay: Intravenous LPS-induced TNF-α release in rat blood; type: in vivo, rats; details: oral gavage, i.v. LPS

## CCCC1O[C@@H]2C[C@H]3[C@@H]4CCC5=CC(=O)C=C[C@]5(C)[C@H]4[C@@H](O)C[C@]3(C)[C@]2(C(=O)CO)O1 (stereo partly drawn) [budesonide, reference compound]
[1]
  neutrophils in BAL fluid: 2.08 ± 0.23 × 10^5 cells/mL
[2]
  neutrophils in BALF: 0.5 ± 0.1 × 10^5 cells/mL

## Cc1c(F)cc(C(=O)NC2CC2)cc1-c1ccc(C(=O)NCC(C)(C)C)cn1 [losmapimod, reference compound]
[3]
  IC50: 0.0119 µM
[4]; CSE-evoked
  maximum inhibition of IL-8: 100%
[4]; Homo sapiens, 18 h
  IC50: 0.00913 µM
[5]
  effect on TNF-α levels in blood: marked reduction in TNF-α levels
